From US7015228B2, “4-amino-2-(2-pyridyl)pyrimidines as microbicidal active substances” (Ciba Specialty Chemicals Corporation, priority 2001, dated 2006)

Key:
Assay in all cases: Determination of the bactericidal activity (logarithmic reduction in organism count)
Details in all cases: contact for 30 minutes at a substance concentration of 120 μg/mL
[1] = test system: S. choleraesuis ATCC 10708; assay type: cell-based, Salmonella choleraesuis
Description: (§1) Determination of the Bactericidal Activity of Selected Compounds
(§2) Casein-soybean flour-peptone broth for preparation of pre-cultures of test bacteria
(§3) Examples of Test Organisms:
(§4) • Staphylococcus aureus ATCC 6538 • Escherichia coli ATCC 10536 • Salmonella choleraesuis ATCC 10708 Procedure:
(§5) The test substances are dissolved in dimethyl sulfoxide (DMSO) and tested in a concentration of 120 μg/ml.
(§6) Bacteria are incubated overnight in CASO broth and adjusted to an organism count of 1–5×10^5 CFU/ml using 0.85% sodium chloride solution.
(§7) The test substances are pre-pipetted into microtitre plates in amounts of 8 μl per well.
(§8) The adjusted test organism suspensions are added in amounts of 192 μl per well to the test substances and mixed. After defined contact times, the test batches are mixed, an aliquot is withdrawn and diluted in several steps in a dilution series of 1:10 in a suitable inactivation medium.
The test plates are incubated for 24 hours at 37° C. […]
(§9) One microtitre plate is used for each test organism.
(§10) All the substances are tested in duplicate.

E. coli NCTC 8196 = assay type: cell-based, Escherichia coli
S. aureus ATCC 6538 = assay type: cell-based, Staphylococcus aureus
Description: as §1, §2, §3, §4, §5, §6, §7, §8
The test plates are incubated for 24 hours at 37° C.
After incubation, the growth is determined on the basis of the turbidity of the test batches (optical density) at 620 nm in a microplate reader.
as §9, §10

Structure (SMILES)	Logarithmic reduction in organism count, S. choleraesuis ATCC 10708 [1]	Logarithmic reduction in organism count, E. coli NCTC 8196 (E. coli NCTC 8196)	Logarithmic reduction in organism count, S. aureus ATCC 6538 (S. aureus ATCC 6538)
CC(C)c1cc(NCCCCCCCCCN)nc(-c2ccccn2)n1 [Compound of formula 42]	<1 log	≦1 log	2 log
Cc1cc(NCCCCCCCCCN)nc(-c2ccccn2)n1 [Compound of formula 18]	<1 log	<1 log	1 log
CCCCCCCCNc1cc(C(F)(F)F)nc(-c2ccccn2)n1 [Compound of formula 33]	<1 log	<1 log	<1 log
CCCCCCCCCCNc1cc(CCOC)nc(-c2ccccn2)n1 [Compound of formula 83]	<1 log	≦1 log	2 log
CCCCCCCCCCCCCCCNc1nc(-c2ccccn2)nc(C)c1CC [Compound of formula 90]	<1 log	<1 log	2 log
CCCCCCCCCCCCCCCNc1cc(C)nc(-c2ccccn2)n1 [Compound of formula 93]	<1 log	≦1 log	2 log
CCCCCCCCCCCNc1cc(C(C)C)nc(-c2ccccn2)n1 [Compound of formula 98]	2–3 log	1–2 log	1 log
CCCCCCCNc1nc(-c2ccccn2)nc(C)c1C(C)C [Compound of formula 68]	<1 log	<1 log	≦1 log
CCCCCCCNc1cc(C(F)(F)F)nc(-c2ccccn2)n1 [Compound of formula 32]	≦1 log	<1 log	<1 log
Cc1nc(-c2ccccn2)nc(NCCCCCCCCN)c1C(C)C [Compound of formula 65]	<1 log	<1 log	3 log
CCCCCCCCCCNc1cc(C(F)(F)F)nc(-c2ccccn2)n1 [Compound of formula 35]	<1 log	<1 log	<1 log
CC(C)(C)c1cc(NCCCCCCCCCN)nc(-c2ccccn2)n1 [Compound of formula 54]	≦1 log	≦1 log	2–3 log
CCCCCCCCCCCCNc1cc(C)nc(-c2ccccn2)n1 [Compound of formula 24]	<1 log	≦1 log	2 log
CCCCCCCNc1cc(C(C)C)nc(-c2ccccn2)n1 [Compound of formula 44]	<1 log	<1 log	1–2 log
CCCCCCCCCCCNc1nc(-c2ccccn2)nc(C)c1CC [Compound of formula 89]	≦1 log	≦1 log	2 log
CCCCCCCCCCNc1cc(C)nc(-c2ccccn2)n1 [Compound of formula 23]	<1 log	<1 log	3 log
CCCCCCCCCNc1cc(C(F)(F)F)nc(-c2ccccn2)n1 [Compound of formula 34]	<1 log	<1 log	<1 log
NCCCCCCCCCNc1cc(C(F)(F)F)nc(-c2ccccn2)n1 [Compound of formula 30]	≦1 log	<1 log	≦1 log
CCc1c(C)nc(-c2ccccn2)nc1NCCCCCCCCCCCCN [Compound of formula 7]	<1 log	≦1 log	2 log
CCCCCCCCCCNc1cc(C(C)C)nc(-c2ccccn2)n1 [Compound of formula 47]	<1 log	<1 log	1 log
CCCCCCCCCCNc1nc(-c2ccccn2)nc(C)c1C(C)C [Compound of formula 71]	<1 log	<1 log	2 log
CCCCCCCCNc1nc(-c2ccccn2)nc(C)c1CC [Compound of formula 9]	<1 log	<1 log	<1 log
CCCCCCCCNc1cc(C(C)C)nc(-c2ccccn2)n1 [Compound of formula 45]	<1 log	<1 log	1–2 log
COCCc1cc(NCCCCCCCCCN)nc(-c2ccccn2)n1 [Compound of formula 78]	<1 log	≦1 log	>3 log
CC(C)c1cc(NCCCCCCCCCCCCN)nc(-c2ccccn2)n1 [Compound of formula 43]	<1 log	<1 log	3 log
COCCc1cc(NCCCCCCCCN)nc(-c2ccccn2)n1 [Compound of formula 77]	<1 log	<1 log	>3 log
CCCCCCCCCNc1nc(-c2ccccn2)nc(C)c1CC [Compound of formula 10]	<1 log	<1 log	1–2 log
CCCCCCCCCNc1cc(C(C)C)nc(-c2ccccn2)n1 [Compound of formula 46]	<1 log	<1 log	≦1 log
CCCCCCCCNc1cc(C)nc(-c2ccccn2)n1 [Compound of formula 21]	<1 log	<1 log	1–2 log
